Data as given in the NIST ThermoML archive (doi:10.1021/je500886a).
± gives the expanded uncertainty stated by the source.

Test: mn = molality of the nth substance listed, in mol/kg
Conditions: 101 kPa, Liquid

O=C[C@@H](O)[C@H](O)[C@H](O)CO [D-(-)-arabinose] + O
Conditions | mass density, 288.15 K [kg/m3] | mass density, 298.15 K [kg/m3] | mass density, 308.15 K [kg/m3] | mass density, 318.15 K [kg/m3] | viscosity, 288.15 K [mPa·s] | viscosity, 298.15 K [mPa·s] | viscosity, 308.15 K [mPa·s] | viscosity, 318.15 K [mPa·s]
m1 = 0.05173 | 1002.09 ± 0.23 | 999.97 ± 0.23 | 996.94 ± 0.23 | 993.08 ± 0.24 | – | – | – | –
m1 = 0.05178 | – | – | – | – | 1.157 ± 0.021 | 0.905 ± 0.017 | 0.73 ± 0.014 | 0.604 ± 0.012
m1 = 0.0695 | – | – | – | – | 1.164 ± 0.022 | 0.909 ± 0.017 | 0.734 ± 0.014 | 0.608 ± 0.012
m1 = 0.07102 | 1003.18 ± 0.24 | 1001.05 ± 0.23 | 998 ± 0.23 | 994.13 ± 0.24 | – | – | – | –
m1 = 0.08979 | – | – | – | – | 1.17 ± 0.022 | 0.915 ± 0.017 | 0.738 ± 0.015 | 0.611 ± 0.012
m1 = 0.09055 | 1004.28 ± 0.24 | 1002.13 ± 0.23 | 999.06 ± 0.23 | 995.18 ± 0.24 | – | – | – | –
m1 = 0.1077 | – | – | – | – | 1.177 ± 0.022 | 0.92 ± 0.018 | 0.741 ± 0.015 | 0.614 ± 0.012
m1 = 0.1093 | 1005.32 ± 0.24 | 1003.17 ± 0.24 | 1000.07 ± 0.23 | 996.18 ± 0.23 | – | – | – | –
m1 = 0.1244 | 1006.17 ± 0.24 | 1004 ± 0.24 | 1000.88 ± 0.23 | 996.98 ± 0.23 | – | – | – | –
m1 = 0.1267 | – | – | – | – | 1.182 ± 0.022 | 0.925 ± 0.018 | 0.745 ± 0.015 | 0.616 ± 0.013
m1 = 0.1476 | 1007.45 ± 0.24 | 1005.26 ± 0.24 | 1002.12 ± 0.23 | 998.21 ± 0.23 | – | – | – | –
m1 = 0.151 | – | – | – | – | 1.191 ± 0.022 | 0.932 ± 0.018 | 0.75 ± 0.015 | 0.621 ± 0.013

OC[C@@H](O)C(O)[C@H](O)CO [D-arabitol] + O
Conditions | mass density, 288.15 K [kg/m3] | mass density, 298.15 K [kg/m3] | mass density, 308.15 K [kg/m3] | mass density, 318.15 K [kg/m3] | viscosity, 288.15 K [mPa·s] | viscosity, 298.15 K [mPa·s] | viscosity, 308.15 K [mPa·s] | viscosity, 318.15 K [mPa·s]
m1 = 0.05025 | – | – | – | – | 1.162 ± 0.022 | 0.906 ± 0.017 | 0.73 ± 0.014 | 0.604 ± 0.012
m1 = 0.0542 | 1001.87 ± 0.23 | 999.73 ± 0.23 | 996.7 ± 0.23 | 992.83 ± 0.24 | – | – | – | –
m1 = 0.06886 | – | – | – | – | 1.172 ± 0.022 | 0.913 ± 0.017 | 0.735 ± 0.014 | 0.608 ± 0.012
m1 = 0.07304 | 1002.82 ± 0.23 | 1000.65 ± 0.23 | 997.61 ± 0.23 | 993.72 ± 0.24 | – | – | – | –
m1 = 0.08867 | 1003.59 ± 0.24 | 1001.41 ± 0.23 | 998.35 ± 0.23 | 994.45 ± 0.24 | – | – | – | –
m1 = 0.09155 | – | – | – | – | 1.183 ± 0.022 | 0.92 ± 0.018 | 0.74 ± 0.015 | 0.611 ± 0.012
m1 = 0.1053 | 1004.4 ± 0.24 | 1002.21 ± 0.23 | 999.14 ± 0.23 | 995.22 ± 0.24 | – | – | – | –
m1 = 0.1061 | – | – | – | – | 1.189 ± 0.022 | 0.925 ± 0.018 | 0.744 ± 0.015 | 0.613 ± 0.012
m1 = 0.1258 | – | – | – | – | 1.198 ± 0.022 | 0.931 ± 0.018 | 0.748 ± 0.015 | 0.617 ± 0.013
m1 = 0.1323 | 1005.72 ± 0.24 | 1003.5 ± 0.24 | 1000.41 ± 0.23 | 996.46 ± 0.23 | – | – | – | –
m1 = 0.1507 | – | – | – | – | 1.209 ± 0.022 | 0.94 ± 0.018 | 0.754 ± 0.015 | 0.621 ± 0.013
m1 = 0.1512 | 1006.64 ± 0.24 | 1004.39 ± 0.24 | 1001.3 ± 0.23 | 997.33 ± 0.23 | – | – | – | –
